Measured values: patent US20090117607A1, “Methods For Differential Detection Of Hypoxic Tissue From A Tissue Sample Of A Mammalian Subject” (priority 2007, published 2009)
“And” between values parts separate entries of the source, which are not always exact repeats. Equal values may be shown once. Read-outs that look alike come from different tables or passages of the source.

Assays:
[1] = tested on: head and neck squamous cell carcinoma (HNSCC) tumor tissue; assay: Quantitative fluorescence immunohistochemical analysis of EF5 binding in HNSCC tumor sections of patients; type: in vivo, human; parameters: key to Maximum CF95 Mean: % of CRB (maximal EF3 binding), scale 0-100%
Description: EF5 Administration. The National Cancer Institute, Division of Cancer Treatment supplied EF5 in 100 mL vials containing an aqueous solution of 3 mg/mL EF5 also containing 5% dextrose and 2.4% ethanol. This EF5 solution was administered through a peripheral IV catheter, 24-48 hours before surgery at a rate no greater than 350 mL/hr and to a total dose of 9-21 mg/kg. Blood samples for drug levels were obtained before and 1 hour after the completion of drug administration, and at the time of surgery. Calculation of drug time/dose concentration (area under the curve, AUC) allowed the absolute EF5 tissue binding level to be corrected for variations in drug dose and exposure time between patients. Koch, et al., Cancer Chemother. Pharmacol., 2001, 48, 177-187.
Tissue Acquisition and processing for EF5 Binding. 24-48 hours after completion of drug administration, tumors were resected or biopsied and placed in sterile, iced EXCELL 610 medium (JRH Biosciences, Lenexa, Kans.). In collaboration with the pathologist, tissue samples deemed unnecessary for clinical diagnosis were taken to the lab for processing and analysis.
IHC staining methods and quantitative fluorescence microscopy of EF5 in in situ tumor sections and EF3 in tissue cubes for cube reference binding (CRB) were performed as reported previously. Evans, et al., Cancer Res., 2004, 64, 1886-1892. CRB determination is an in vitro technique where tissue cubes are incubated in 200 μM EF3, a sister drug of EF5, under controlled hypoxic conditions for 3 hours. The goal of this procedure was to determine the maximum level of EF3 binding possible for each patient's tumor. This technique allowed normalization of the in situ EF5 binding to each tumor's maximum binding value after correction for the AUC. Koch, et al., Cancer Chemother. Pharmacol., 2001, 48, 177-187. These values were used to calculate the maximum and average ‘% CRB’ value for each tumor, as described previously and briefly below. Evans, et al., Cancer Res., 2000, 60, 2018-2024. Thus, EF5 binding values for each tumor tissue are reported on a scale of 0-100% allowing for comparisons within and between tumors.
Quantitative Image analysis. The quantitative analysis of tumor sections stained for EF3/EF5 has been previously described. Evans, J. Invest. Derm., 2006; Evans, et al., Int. J. Radiat. Oncol., Biol., Phys., 2001, 49, 587-596; Busch, et al., Adv Exp Med. Biol., 2003, 510, 37-43. Briefly, tissue sections were counterstained with Hoechst 33342 to identify the location of intact nuclei. These images were used to create bitmaps in order to generate binary masks of viable tissue regions. Masked regions of each section were analyzed for EF5-dependent immunofluorescence intensity using routines written in MatLab (The MathWorks, Inc., Natick, Mass.). EF5 intensity values of these regions were corrected for tissue section thickness, camera exposure time, relative lamp intensity, EF5 drug exposure (AUC) and CRB. Evans, et al., Cancer Res., 2000, 60, 2018-2024; Evans, et al., Int. J. Radiat. Oncol., Biol., Phys., 2001, 49, 587-596; Evans, et al, Clin. Cancer Res., 2004, 10, 8177-8184; Koch, et al., Cancer Chemother. Pharmacol., 2001, 48, 177-187. Data were then summarized by generating histograms of all positive pixels in the masked image, which were then converted into a cumulative frequency plot. The number of pixels at or below a given binding level can be identified from this plot. For example, CF95=20% would mean that 95% of the EF5 values in the image were at or below 20% of CRB. Terms to describe tissue oxygenation based on EF5 studies have been approximated by data from in vitro studies (Table 1). Koch, Method Enzymol., 2002, 352, 3-31. Normoxic conditions correspond to a CF95≈1%; for modestly/mildly hypoxic conditions, CF95≈3%; for moderately hypoxic conditions, CF95≈10%; for severely hypoxic conditions, CF95≈30%, and for anoxia, the CF95100%. The pO2 corresponding to these descriptive terms is found in Table 1. […]

hypoxic cells = settings: cited from earlier work
[2] = EF5-related toxicity in patients after IV EF5 administration; type: in vivo, human; settings: 22 HNSCC patients
Description: Human Subjects. The Institutional Review Board of the University of Pennsylvania Clinical Trials and Scientific Monitoring Committee at the University of Pennsylvania Abramson Cancer Center and the Cancer Therapeutics Evaluation Program of the National Cancer Institute approved this prospective trial of EF5. All patients signed an approved consent form for both the study and for privacy (HIPPA). Patients of all ethnic and gender groups were included. Eligible patients were those undergoing resection or biopsy of a HNSCC as clinically indicated. Exclusion criteria included patients with a history of grade III or IV peripheral neuropathy, pregnant or nursing patients and patients <18 years old. Coleman, et al., Int. J. Radiat. Oncol., Biol., Phys., 1990, 18, 389-393. EF5 Administration. The National Cancer Institute, Division of Cancer Treatment supplied EF5 in 100 mL vials containing an aqueous solution of 3 mg/mL EF5 also containing 5% dextrose and 2.4% ethanol. This EF5 solution was administered through a peripheral IV catheter, 24-48 hours before surgery at a rate no greater than 350 mL/hr and to a total dose of 9-21 mg/kg. Blood samples for drug levels were obtained before and 1 hour after the completion of drug administration, and at the time of surgery. […]

HNSCC = settings: meta-analysis of trials; cited from earlier work
HNSCC hypoxic tumors = settings: 45 HNSCC patients, adjuvant cisplatin with tirapazamine; cited from earlier work

SMILES: O=C(Cn1ccnc1[N+](=O)[O-])NCC(F)(F)C(F)(F)F [EF5]
- Maximum CF95 Mean ([1]; Age <60 y (11)): 25.66
- Maximum CF95 Mean ([1]; Age ≧60 y (11)): 21.11
- Maximum CF95 Mean ([1]; All patients (22)): 23.38
- Maximum CF95 Mean ([1]; Differentiation: Moderate (10)): 20.00
- Maximum CF95 Mean ([1]; Differentiation: Moderate to poor, poor (7)): 35.87
- Maximum CF95 Mean ([1]; Differentiation: Well, well to moderate (5)): 12.65
- Maximum CF95 Mean ([1]; Gender: Men (18)): 26.74
- Maximum CF95 Mean ([1]; Gender: Women (4)): 8.27
- Maximum CF95 Mean ([1]; Nodal stage N0-N1 (15)): 17.96
- Maximum CF95 Mean ([1]; Nodal stage N2-N3 (7)): 35.00
- EF5 binding average CF95 ([1]; individual patient tumor, average of all tissue sections, biopsy 24-48 h after EF5 IV 9-21 mg/kg): 0.8 % CRB and 0.9 % CRB and 1.9 % CRB and 1.1 % CRB and 4.2 % CRB and 5.6 % CRB and 6.2 % CRB and 6.1 % CRB and 6.4 % CRB and 10.8 % CRB and 16.0 % CRB and 19.6 % CRB and 18.7 % CRB and 12.5 % CRB and 26.0 % CRB and 14.2 % CRB and 23.0 % CRB and 36.9 % CRB and 38.5 % CRB and 34.5 % CRB and 0.4 % CRB and 1.3 % CRB
- EF5 binding maximum CF95 ([1]; individual patient tumor, brightest binding of all tissue sections, biopsy 24-48 h after EF5 IV 9-21 mg/kg): 1.4 % CRB (2×) and 2.8 % CRB and 6.0 % CRB and 7.9 % CRB and 8.2 % CRB and 8.9 % CRB and 10.0 % CRB and 16.4 % CRB and 17.8 % CRB and 19.4 % CRB and 23.1 % CRB and 25.4 % CRB and 30.7 % CRB and 35.8 % CRB and 36.0 % CRB and 61.7 % CRB and 66.0 % CRB and 66.5 % CRB and 66.6 % CRB and 1.2 % CRB and 1.3 % CRB
- Maximum EF5 binding (%) (hypoxic cells; Anoxia, pO2 0%): 100%
- Maximum EF5 binding (%) (hypoxic cells; Moderate hypoxia, pO2 0.5% (3.8 mm Hg)): 10%
- Maximum EF5 binding (%) (hypoxic cells; Modest (mild) hypoxia, pO2 2.5% (19 mm Hg)): 3%
- Maximum EF5 binding (%) (hypoxic cells; Normoxia, pO2 10% (76 mm Hg)): 1%
- Maximum EF5 binding (%) (hypoxic cells; Severe hypoxia, pO2 0.1% (0.76 mm Hg)): 30%
- EF5-related grade 1 and 2 toxicity [2]: One patient each experienced EF5-related grade 1 and 2 toxicity
- EF5-related grade 3 or 4 toxicity ([2]; 30 days following EF5 administration): no episodes of EF5-related grade 3 or 4 toxicity

SMILES: COCC(O)Cn1ccnc1[N+](=O)[O-] (stereo not drawn) [misonidazole]
- Effectiveness as hypoxic cell sensitizer (HNSCC): could be identified in a subset of patients

SMILES: Nc1n[n+]([O-])c2ccccc2[n+]1[O-] [tirapazamine]
- Outcome (local-regional failure) of patients with hypoxic tumors (HNSCC hypoxic tumors): did as well as those with oxic tumors
